Test results reported in PubChem BioAssay (NCI).
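Step 1: Grow cells in 96-well plates. Step 2: Expose to compound for 48 hours at 5 concentrations. Step 3: Interpolate endpoints linearly; if unreached, use highest concentration. TGI denotes the concentration required for complete inhibition of growth.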

Columns and labels:
Assay in all cases: inhibition of tumour cell growth, NCI panel, 48 h
HOP-62 NSCLC = test system: HOP-62 NSCLC
IGROV1 ovarian = test system: IGROV1 ovarian
DU-145 prostate = test system: DU-145 prostate
UO-31 renal = test system: UO-31 renal
OVCAR-5 ovarian = test system: OVCAR-5 ovarian
SF-539 CNS = test system: SF-539 CNS
NCI-H226 lung = test system: NCI-H226 lung
MALME-3M melanoma = test system: MALME-3M melanoma
MDA-MB-231 breast = test system: MDA-MB-231 breast
HL-60(TB) leukemia = test system: HL-60(TB) leukemia
786-0 renal = test system: 786-0 renal
HCT-15 colon = test system: HCT-15 colon
SNB-19 CNS = test system: SNB-19 CNS
T-47D breast = test system: T-47D breast
ACHN renal = test system: ACHN renal
CAKI-1 renal = test system: CAKI-1 renal
RXF 393 renal = test system: RXF 393 renal
NCI-H522 lung = test system: NCI-H522 lung
HCC-2998 colon = test system: HCC-2998 colon
NCI/ADR-RES ovarian = test system: NCI/ADR-RES ovarian
HCT-116 colon = test system: HCT-116 colon
SN12C renal = test system: SN12C renal
HS 578T breast = test system: HS 578T breast
OVCAR-8 ovarian = test system: OVCAR-8 ovarian
SNB-75 CNS = test system: SNB-75 CNS
SF-268 CNS = test system: SF-268 CNS
SW-620 colon = test system: SW-620 colon
M14 melanoma = test system: M14 melanoma
A498 renal = test system: A498 renal
HOP-92 NSCLC = test system: HOP-92 NSCLC
SK-MEL-2 melanoma = test system: SK-MEL-2 melanoma
MDA-MB-435 = test system: MDA-MB-435
SK-MEL-28 melanoma = test system: SK-MEL-28 melanoma
RPMI-8226 leukemia = test system: RPMI-8226 leukemia
PC-3 prostate = test system: PC-3 prostate
NCI-H23 lung = test system: NCI-H23 lung
HT29 colon = test system: HT29 colon
MDA-N = test system: MDA-N
TK-10 renal = test system: TK-10 renal
UACC-62 melanoma = test system: UACC-62 melanoma
BT-549 breast = test system: BT-549 breast
LOX IMVI melanoma = test system: LOX IMVI melanoma
SF-295 CNS = test system: SF-295 CNS
EKVX NSCLC = test system: EKVX NSCLC
KM12 colon = test system: KM12 colon
MCF7 breast = test system: MCF7 breast
SK-MEL-5 melanoma = test system: SK-MEL-5 melanoma
UACC-257 melanoma = test system: UACC-257 melanoma
SK-OV-3 ovarian = test system: SK-OV-3 ovarian
A549 NSCLC = test system: A549 NSCLC
NCI-H460 lung = test system: NCI-H460 lung
OVCAR-4 ovarian = test system: OVCAR-4 ovarian
COLO 205 colon = test system: COLO 205 colon
MOLT-4 leukemia = test system: MOLT-4 leukemia
K-562 leukemia = test system: K-562 leukemia
U251 CNS = test system: U251 CNS
SR leukemia = test system: SR leukemia
OVCAR-3 ovarian = test system: OVCAR-3 ovarian
CCRF-CEM leukemia = test system: CCRF-CEM leukemia

`CCOP(=O)(O)C(Nc1ccc(N=Nc2ccccc2)cc1)c1ccc(C(Nc2ccc(N=Nc3ccccc3)cc2)P(=O)(O)OCC)cc1` (centres undefined) gave a TGI (HOP-62 NSCLC) of 36.3 µM, a TGI (IGROV1 ovarian) of 47.8 µM and a TGI (DU-145 prostate) of over 100 µM. For the same compound, the TGI (UO-31 renal) was over 100 µM, the TGI (OVCAR-5 ovarian) was 53.7 µM and the TGI (SF-539 CNS) was 38.2 µM. The TGI (NCI-H226 lung) was 99.2 µM, the TGI (MALME-3M melanoma) was 32.2 µM and the TGI (MDA-MB-231 breast) was 90.9 µM. The TGI (HL-60(TB) leukemia) was 37 µM, the TGI (786-0 renal) was 78.5 µM and the TGI (HCT-15 colon) was 47.9 µM. The TGI (SNB-19 CNS) was 41.2 µM, the TGI (T-47D breast) was 47.1 µM and the TGI (ACHN renal) was over 100 µM. For the same compound, the TGI (CAKI-1 renal) was over 100 µM, the TGI (RXF 393 renal) was 49.3 µM and the TGI (NCI-H522 lung) was 37.6 µM. For the same compound, the TGI (HCC-2998 colon) was 34.3 µM, the TGI (NCI/ADR-RES ovarian) was 73 µM and the TGI (HCT-116 colon) was 39.5 µM. The TGI (SN12C renal) was 46.3 µM, the TGI (HS 578T breast) was 46.8 µM and the TGI (OVCAR-8 ovarian) was 31.4 µM. For the same compound, the TGI (SNB-75 CNS) was 34.5 µM, the TGI (SF-268 CNS) was 42.9 µM and the TGI (SW-620 colon) was 38.2 µM. It also gave a TGI (M14 melanoma) of 29.6 µM, a TGI (A498 renal) of 64.8 µM and a TGI (HOP-92 NSCLC) of 95.1 µM. The TGI (SK-MEL-2 melanoma) was 32.8 µM, the TGI (MDA-MB-435) was 32.4 µM and the TGI (SK-MEL-28 melanoma) was 33.5 µM. The TGI (RPMI-8226 leukemia) was 53.8 µM, the TGI (PC-3 prostate) was 35.7 µM and the TGI (NCI-H23 lung) was 64.2 µM. For the same compound, the TGI (HT29 colon) was 33.8 µM, the TGI (MDA-N) was 40.8 µM and the TGI (TK-10 renal) was over 100 µM. It also gave a TGI (UACC-62 melanoma) of 35 µM, a TGI (BT-549 breast) of 49.2 µM and a TGI (LOX IMVI melanoma) of 29.6 µM. It also gave a TGI (SF-295 CNS) of 35 µM, a TGI (EKVX NSCLC) of 41 µM and a TGI (KM12 colon) of 31 µM. It also gave a TGI (MCF7 breast) of over 100 µM, a TGI (SK-MEL-5 melanoma) of 30.7 µM and a TGI (UACC-257 melanoma) of 70.1 µM. For the same compound, the TGI (SK-OV-3 ovarian) was 36.8 µM, the TGI (A549 NSCLC) was 88.7 µM and the TGI (NCI-H460 lung) was 50.3 µM. The TGI (OVCAR-4 ovarian) was over 100 µM, the TGI (COLO 205 colon) was 28.8 µM and the TGI (MOLT-4 leukemia) was 37.2 µM. It also gave a TGI (K-562 leukemia) of 35.7 µM, a TGI (U251 CNS) of 33.5 µM and a TGI (SR leukemia) of 42.6 µM. The TGI (OVCAR-3 ovarian) was over 100 µM and the TGI (CCRF-CEM leukemia) was 41.6 µM.
